Key:
Spodoptera eridiana = experiment: Southern armyworm foliar spray test on lima bean plants, mortality; format: in vivo; settings: 96 h, 2nd instar larvae, lima bean foliage sprayed, assessed 4 days after treatment, read-out: mortality in comparison with untreated controls
Procedure: The active compounds were formulated in cyclohexanone as a 10,000 ppm solution supplied in tubes. The tubes were inserted into an automated electrostatic sprayer equipped with an atomizing nozzle and they served as stock solutions for which lower dilutions were made in 50% acetone:50% water (v/v). A nonionic surfactant (Kinetic) was included in the solution at a volume of 0.01% (v/v).
Lima bean plants (variety Sieva) were grown 2 plants to a pot and selected for treatment at the 1st true leaf stage. Test solutions were sprayed onto the foliage by an automated electrostatic plant sprayer equipped with an atomizing spray nozzle. The plants were dried in the sprayer fume hood and then removed from the sprayer. Each pot was placed into perforated plastic bags with a zip closure. About 10 to 11 armyworm larvae were placed into the bag and the bags zipped closed. Test plants were maintained in a growth room at about 25° C. and about 20-40% relative humidity for 4 days, avoiding direct exposure to fluorescent light (24 hour photoperiod) to prevent trapping of heat inside the bags. Mortality and reduced feeding were assessed 4 days after treatment, compared to untreated control plants.

Plutella xylostella = experiment: Diamond backmoth leaf-dip test on cabbage leaves, mortality; format: in vivo; settings: 3rd instar larvae, cabbage leaves dipped, recorded 72 hours after treatment, read-out: mortality in comparison with untreated controls
Procedure: The active compound was dissolved at the desired concentration in a mixture of 1:1 (vol:vol) distilled water: aceteone. Surfactant (Alkamuls® EL 620) was added at a rate of 0.1% (vol/vol). The test solution was prepared at the day of use.
Leaves of cabbage were dipped in test solution and air-dried. Treated leaves were placed in petri dishes lined with moist filter paper and inoculated with ten 3rd instar larvae. Mortality was recorded 72 hours after treatment. Feeding damages were also recorded using a scale of 0-100%.

How did the mortality at 500 ppm (Spodoptera eridiana) turn out when CNC(=O)CONC(=O)c1cc(Cl)cc(C)c1NC(=O)c1cnn(CC(F)(F)F)c1-c1ncccc1Cl [Compound 1-1, 5-(3-chloro-pyridin-2-yl)-1-(2,2,2-trifluoro-ethyl)-1H-pyrazole-4-carboxylic acid (4-chloro-2-methyl-6-methylcarbamoylmethoxycarbamoyl-phenyl)-amide] was run?
The mortality at 500 ppm was 100%.

And the mortality at 500 ppm (Plutella xylostella)?
Its mortality at 500 ppm is 100%.
